Assays:
[1] = system: U937; settings: U937 (WO 2006/128129); cited from earlier work
[2] = system: SUDHL-4 cells; experiment: Screen of 93-drug library with and without apilimod (CellTiter-Glo 72 h); format: cell-based; settings: Homo sapiens, SU-DHL-4
Text: A manually curated library of 93 drugs including both FDA approved and unapproved drugs was used in the screen.

[3] = active Crohn's disease, placebo-controlled (Sands et al. 2010); cited from earlier work
[4] = system: THP-1; settings: THP-1 (WO 2006/128129); cited from earlier work
[5] = system: diffuse large B cell lymphoma cells; experiment: Apotox-Glo Triplex assay (viability, apoptosis, necrosis); format: cell-based; settings: 48 hours
Description: Apoptosis was quantified and distinguished from necrosis using the Apotox-Glo Triplex assay (Promega, Inc.) according to the manufacturer's instructions. In this assay, viability, apoptosis, and necrosis are assessed simultaneously using three different markers (GF-AFC, Caspase-3/7, and bis-AAF-R110, respectively).

[6] = system: H4 neuroglioma cell line; experiment: Cyto-ID Autophagy detection; format: cell-based, Human; settings: 72 hours of treatment
Text: Autophagy was quantified using the Cyto-ID Autophagy detection kit (Enzo) according to manufacturer's directions.

[7] = system: peripheral blood mononuclear cells; settings: peripheral blood mononuclear cells (Wada et al. 2007); cited from earlier work
[8] = system: HELA; settings: HELA (WO 2006/128129); cited from earlier work
[9] = system: IL-12/IL-23 synthesis; settings: psoriasis, oral administration, open label (Wada et al. 2012); cited from earlier work
[10] = system: 122 human cancer cell lines; experiment: Cancer cell line sensitivity screen (cell viability); format: cell-based; settings: non-Hodgkin's Lymphoma cell lines; sensitive if IC50 less than 500 nM
Text: (§1) 35 cell lines were identified as sensitive to apilimod-induced cytotoxicity.
The most sensitive of those tested were non-Hodgkin's Lymphoma (NHL) cell lines. […] NHL represents a diverse group of hematopoietic malignancies that vary in severity, with subtypes ranging from slow growing to aggressive. Subtypes of NHL include diffuse large B cell lymphoma (DLBCL), Burkitt's lymphoma, mantle lymphoma, and follicular B cell lymphoma. DLBCL is divided into two subtypes, GCB and ABC, based on gene expression and cell of origin. The GCB are germinal center B cell type, arising from normal germinal center B cells, and the ABC are activated B cell type, arising from post-germinal center B cells in the process of differentiating into plasma cells.

[11] = system: representative cancer cell line; experiment: Vacuolization of live cells; format: cell-based; settings: 500 nM, 24 h
[12] = system: Jurkat; settings: Jurkat (WO 2006/128129); cited from earlier work
[13] = system: Normal lung fibroblasts; experiment: Cytotoxicity on normal cells; format: cell-based; settings: concentrations as high as 10 micromolar
Text: as §1

## Cc1cccc(/C=N/Nc2cc(N3CCOCC3)nc(OCCc3ccccn3)n2)c1 [apilimod]
[1]
  cytotoxicity: not cytotoxic
[2]
  IC20: 0.01 µM
[3]
  clinical efficacy: did not demonstrate efficacy over placebo
[4]
  cytotoxicity: not cytotoxic
[5]
  apoptosis (Caspase-3/7 marker): increased apoptosis
[6]
  autophagy (autophagic vacuoles): induced autophagy in a dose-dependent manner
[7]
  cytotoxicity: not cytotoxic
[8]
  cytotoxicity: not cytotoxic
[9]
  immunomodulatory activity in patients: showed immunomodulatory activity
[10]
  percentage of NHL cell lines tested that were sensitive: over 50%
[11]
  vacuolization: induces vacuolization
[12]
  cytotoxicity: not cytotoxic
[13]
  apilimod-induced cytotoxicity: insensitive

Reference: patent US11266654B2 (AI Therapeutics, Inc., priority 2014, dated 2022)
